Assay results from ChEMBL document CHEMBL1201862, “PubChem BioAssay data set” (2004).
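How tested: cells in 96-well plates exposed to compound for 48 hours at five concentrations. At the GI50, growth is halved.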 Calls of active or inactive are those of the source. Cut-off read from the data, not from the text of the source: active = GI50 up to about 1.1 µM and inactive = higher.

Experiments:
Assay in all cases: growth of human tumour cells (NCI), 48 h
Malme-3M = tested on: Malme-3M
SK-MEL-2 = tested on: SK-MEL-2
SK-MEL-5 = tested on: SK-MEL-5
UACC-62 = tested on: UACC-62
UACC-257 = tested on: UACC-257
NCI-H226 = tested on: NCI-H226
RXF 393 = tested on: RXF 393
EKVX = tested on: EKVX
COLO 205 = tested on: COLO 205
RPMI-8226 = tested on: RPMI-8226
HT-29 = tested on: HT-29
TK-10 = tested on: TK-10
SR = tested on: SR
ACHN = tested on: ACHN
SF-539 = tested on: SF-539
PC-3 = tested on: PC-3
MDA-N = tested on: MDA-N
DU-145 = tested on: DU-145
SN12C = tested on: SN12C

SMILES | GI50 (Malme-3M) | GI50 (SK-MEL-2) | GI50 (SK-MEL-5) | GI50 (UACC-62) | GI50 (UACC-257) | GI50 (NCI-H226) | GI50 (RXF 393) | GI50 (EKVX) | GI50 (COLO 205) | GI50 (RPMI-8226) | GI50 (HT-29) | GI50 (TK-10) | GI50 (SR) | GI50 (ACHN) | GI50 (SF-539) | GI50 (PC-3) | GI50 (MDA-N) | GI50 (DU-145) | GI50 (SN12C)
O=C1C=C(N2CCCC2)C=C(N2CCCC2)C1 | > 100 µM (inactive) | > 100 µM (inactive) | > 100 µM (inactive) | > 100 µM (inactive) | > 100 µM (inactive) | > 100 µM (inactive) | > 100 µM (inactive) | > 100 µM (inactive) | > 100 µM (inactive) | > 100 µM (inactive) | > 100 µM (inactive) | > 100 µM (inactive) | > 100 µM (inactive) | > 100 µM (inactive) |  |  |  |  | 
O=C1CCCC2=C1CC1=C(CCCC1=O)N2c1ccc(Cl)cc1 | > 100 µM (inactive) |  | > 100 µM (inactive) | > 100 µM (inactive) | > 100 µM (inactive) | > 100 µM (inactive) | > 100 µM (inactive) | > 100 µM (inactive) | > 100 µM (inactive) | > 100 µM (inactive) | > 100 µM (inactive) | > 100 µM (inactive) | 50.1 µM (inactive) | > 100 µM (inactive) | > 100 µM (inactive) | > 100 µM (inactive) | > 100 µM (inactive) | > 100 µM (inactive) | > 100 µM (inactive)
O=C(Cn1c(=O)oc2ccccc21)N(c1ccccc1)c1ccccc1 | 3.39 µM (inactive) | > 100 µM (inactive) | > 100 µM (inactive) | > 100 µM (inactive) | > 100 µM (inactive) | 15.2 µM (inactive) | > 100 µM (inactive) | 11.9 µM (inactive) | > 100 µM (inactive) | > 100 µM (inactive) | > 100 µM (inactive) | > 100 µM (inactive) | > 100 µM (inactive) | > 100 µM (inactive) | 88.9 µM (inactive) | > 100 µM (inactive) | > 100 µM (inactive) | > 100 µM (inactive) | > 100 µM (inactive)
COc1ccc(CC(=O)NCCc2ccc(OC)c(OC)c2)cc1Br | > 100 µM (inactive) | > 100 µM (inactive) |  | 62.1 µM (inactive) | > 100 µM (inactive) | 41.5 µM (inactive) | > 100 µM (inactive) | > 100 µM (inactive) | > 100 µM (inactive) |  | > 100 µM (inactive) | > 100 µM (inactive) | > 100 µM (inactive) | > 100 µM (inactive) | > 100 µM (inactive) |  |  |  | > 100 µM (inactive)
Cc1cccc(CNNC(=O)c2cc[n+]([BH2-]C#N)cc2)c1 | 15 µM (inactive) | 34.9 µM (inactive) | 17.2 µM (inactive) | 62.7 µM (inactive) | 37.6 µM (inactive) | 23.9 µM (inactive) | 22.4 µM (inactive) | 36.4 µM (inactive) | 16.5 µM (inactive) | 24.8 µM (inactive) | 29.3 µM (inactive) | 53.7 µM (inactive) | 32.3 µM (inactive) | 42.6 µM (inactive) |  | 31.6 µM (inactive) | 29.2 µM (inactive) | 24.7 µM (inactive) | 
C[N+](C)=c1nc(N2CCOCC2)ss1 |  | > 100 µM (inactive) | > 100 µM (inactive) | 8.53 µM (inactive) | > 100 µM (inactive) | > 100 µM (inactive) | > 100 µM (inactive) | > 100 µM (inactive) |  |  | 22.8 µM (inactive) | > 100 µM (inactive) | > 100 µM (inactive) | > 100 µM (inactive) | > 100 µM (inactive) |  |  |  | > 100 µM (inactive)
CC1=C2CC[C@@]3(C)C(=CCC3O)C2(C)CCC1=O (stereo partly drawn) | > 100 µM (inactive) |  | > 100 µM (inactive) | 56.4 µM (inactive) | > 100 µM (inactive) | > 100 µM (inactive) | > 100 µM (inactive) | 27.1 µM (inactive) | > 100 µM (inactive) | > 100 µM (inactive) | > 100 µM (inactive) | > 100 µM (inactive) | > 100 µM (inactive) | > 100 µM (inactive) | > 100 µM (inactive) |  |  |  | > 100 µM (inactive)
COc1ccc(/C=C2\CCC(CN3CCOCC3)C2=O)cc1 (stereo not drawn) | 3.01 µM (inactive) | 3.78 µM (inactive) | 4.62 µM (inactive) | 11.8 µM (inactive) | 2.37 µM (inactive) | 18.9 µM (inactive) | 0.942 µM (active) | 7.57 µM (inactive) | 2.17 µM (inactive) | 0.552 µM (active) | 2.44 µM (inactive) | 3.57 µM (inactive) | 1.46 µM (inactive) | 4.73 µM (inactive) | 5.92 µM (inactive) | 3.15 µM (inactive) | 2.79 µM (inactive) | 2.23 µM (inactive) | 3.83 µM (inactive)
CN(C)CCNC(=O)C1COc2cc(-c3cc(=O)c4ccccc4o3)ccc2O1 (stereo not drawn) | 21.7 µM (inactive) |  | 15.2 µM (inactive) | 18.8 µM (inactive) | 18.5 µM (inactive) | 28.1 µM (inactive) | 21.4 µM (inactive) | 53.5 µM (inactive) | 16.6 µM (inactive) | 27.9 µM (inactive) | 16.9 µM (inactive) | 29.6 µM (inactive) | 15.6 µM (inactive) | 16.9 µM (inactive) | 17.3 µM (inactive) |  |  |  | 22.4 µM (inactive)
CC(=O)Oc1cc2oc(=O)cc(C)c2cc1OC(C)=O | 28.5 µM (inactive) | > 100 µM (inactive) | > 100 µM (inactive) | 58.2 µM (inactive) | 48.9 µM (inactive) | 40.2 µM (inactive) |  | 52.5 µM (inactive) | 48 µM (inactive) | 45.7 µM (inactive) | 39.6 µM (inactive) | 44.5 µM (inactive) | 39.6 µM (inactive) | 42.2 µM (inactive) | 31.3 µM (inactive) | 84.9 µM (inactive) | > 100 µM (inactive) | 52.7 µM (inactive) | 48.1 µM (inactive)
COc1cc(C2SCC(=O)N2c2ccccc2Cl)cc(OC)c1OC (stereo not drawn) |  | > 100 µM (inactive) | 92 µM (inactive) | > 100 µM (inactive) | > 100 µM (inactive) | > 100 µM (inactive) |  | > 100 µM (inactive) | > 100 µM (inactive) | 90.2 µM (inactive) | > 100 µM (inactive) | > 100 µM (inactive) | 43.1 µM (inactive) | > 100 µM (inactive) | > 100 µM (inactive) | > 100 µM (inactive) | 19.4 µM (inactive) | > 100 µM (inactive) | > 100 µM (inactive)
c1ccc(C2SCc3nc4ccccc4n32)cc1 (stereo not drawn) | 38.3 µM (inactive) | 29.6 µM (inactive) | 18.6 µM (inactive) | 37.2 µM (inactive) | 27.8 µM (inactive) | 17.8 µM (inactive) | 53.2 µM (inactive) | 39.4 µM (inactive) | 37.8 µM (inactive) | 20.1 µM (inactive) | 46 µM (inactive) | 52.4 µM (inactive) | 25.8 µM (inactive) | 59.3 µM (inactive) | 22.5 µM (inactive) |  |  |  | 46.1 µM (inactive)
CC(=O)O[C@H]1CC2C(C3CCC(C(C)CCC(=O)O)[C@]31C)[C@H](OC(C)=O)C[C@@H]1CC3(CC[C@]21C)OOC1(CC[C@]2(C)C4C[C@H](OC(C)=O)[C@]5(C)C(C(C)CCC(=O)O)CCC5C4[C@H](OC(C)=O)C[C@@H]2C1)OO3 (stereo partly drawn) | 1.52 µM (inactive) | 1.77 µM (inactive) | 1.55 µM (inactive) |  | 2.15 µM (inactive) | 2.04 µM (inactive) | 1.36 µM (inactive) | 2.81 µM (inactive) | 1.91 µM (inactive) | 2.76 µM (inactive) | 2.57 µM (inactive) | 2.75 µM (inactive) | 3.3 µM (inactive) | 1.71 µM (inactive) |  | 1.69 µM (inactive) | 2.31 µM (inactive) | 1.2 µM (inactive) | 2.42 µM (inactive)
N#CCCN(CCC#N)c1ccc(/C=C(/NC(=O)c2cc([N+](=O)[O-])ccc2Cl)C(=O)NN)cc1 | > 100 µM (inactive) | > 100 µM (inactive) | > 100 µM (inactive) | > 100 µM (inactive) | > 100 µM (inactive) | > 100 µM (inactive) | > 100 µM (inactive) | > 100 µM (inactive) | > 100 µM (inactive) | 29.6 µM (inactive) | > 100 µM (inactive) | > 100 µM (inactive) | 3.94 µM (inactive) | > 100 µM (inactive) | > 100 µM (inactive) |  |  |  | > 100 µM (inactive)
CCC(C)[C@@H](NCc1ccccc1)[C@H](OCc1ccccc1)[C@@H]1COC(C)(C)O1 (stereo partly drawn) | 18.4 µM (inactive) | 18.2 µM (inactive) | 12.8 µM (inactive) | 20.6 µM (inactive) | 18.7 µM (inactive) | 14.8 µM (inactive) |  | 20.5 µM (inactive) | 15.9 µM (inactive) | 15.8 µM (inactive) | 10.7 µM (inactive) | 15.6 µM (inactive) | 26.1 µM (inactive) | 20.9 µM (inactive) |  | 28.6 µM (inactive) | 32.1 µM (inactive) | 27.4 µM (inactive) | 22.6 µM (inactive)
COC(C(=O)NN)c1ccccc1 (stereo not drawn) | > 100 µM (inactive) | > 100 µM (inactive) | > 100 µM (inactive) | > 100 µM (inactive) | > 100 µM (inactive) | > 100 µM (inactive) | > 100 µM (inactive) | > 100 µM (inactive) |  | > 100 µM (inactive) | > 100 µM (inactive) | > 100 µM (inactive) | > 100 µM (inactive) | > 100 µM (inactive) | > 100 µM (inactive) | > 100 µM (inactive) | > 100 µM (inactive) | > 100 µM (inactive) | > 100 µM (inactive)
